From US4709083A, “Method of making boron analogues” (The United States of America as represented by the …, priority 1986, dated 1987)

Key:
[1] = system: serum cholesterol; assay: hyperlipidemic screen: serum cholesterol levels (modified Liebermann-Burchard reaction); assay type: in vivo; settings: male CF1 mice, intraperitoneal, 20 mg/kg day, 1% aqueous carboxymethylcellulose
Procedure: (§1) A hyperlipidemic screen was performed using the compounds of Examples 2 and 4. The compounds were suspended in 1% aqueous carboxymethylcellulose and adimistered to male CF1 mice intraperitoneally for 16 days at a dosage of 20 mg/kg day.
(§2) On days 9 and 16 blood was obtained by tail vein bleeding and the serum separated by centrifugation for 3 min.
(§3) Serum cholesterol levels were determined using a modification of the Liebermann-Burchard reaction, see Ness et al, Clin. Chim. Acta, v. 10, p. 229, (1964). Serum triglicerides were determined using the Fisher, Hycel Triglyceride Test Kit, a commercially available kit.

[2] = system: serum triglyceride; assay: hyperlipidemic screen: serum triglycerides (Fisher, Hycel Triglyceride Test Kit); assay type: in vivo; settings: male CF1 mice, intraperitoneal, 20 mg/kg day, 1% aqueous carboxymethylcellulose
Procedure: as §1, §2, §3

With `[BH3-][N+](C)(C)CCOC(C)=O` [Example 2, 2 (Acetoxyethyl)dimethylamine-borane] the “Serum cholesterol inhibition %, 9th Day” value [1] was 28%, the “Serum cholesterol inhibition %, 16th Day” value [1] was 41% and the “Triglyceride inhibition %, 16th Day” value [2] was 32%.
`[BH3-][N+](C)(C)CCOC(=O)c1ccccc1` [Example 4, 2-(benzoyloxyethyl)dimethylamine-Borane] was tested, and the “Serum cholesterol inhibition %, 9th Day” value [1] was 31%, the “Serum cholesterol inhibition %, 16th Day” value [1] was 37% and the “Triglyceride inhibition %, 16th Day” value [2] was 31%.
